Assay results published in ChEMBL document CHEMBL1201862, “PubChem BioAssay data set” (2004).
Activity calls are given as the source filed them.

Key:
[1] = biological target: RNA-editing ligase 1, mitochondrial (Trypanosoma brucei brucei, UniProt P86926); experiment: TbREL1 ligase inhibitors, dose response, biochemical, fluorescence, Trypanosoma brucei (AID 1117295); type: functional
[2] = biological target: T1, Calpain-2 catalytic subunit (Sus scrofa, UniProt P43367); experiment: pig calpain II inhibitor potency, dose response, biochemical, fluorogenic peptide substrate (AID 1420); type: functional
T1 sequence (P43367 whole entry): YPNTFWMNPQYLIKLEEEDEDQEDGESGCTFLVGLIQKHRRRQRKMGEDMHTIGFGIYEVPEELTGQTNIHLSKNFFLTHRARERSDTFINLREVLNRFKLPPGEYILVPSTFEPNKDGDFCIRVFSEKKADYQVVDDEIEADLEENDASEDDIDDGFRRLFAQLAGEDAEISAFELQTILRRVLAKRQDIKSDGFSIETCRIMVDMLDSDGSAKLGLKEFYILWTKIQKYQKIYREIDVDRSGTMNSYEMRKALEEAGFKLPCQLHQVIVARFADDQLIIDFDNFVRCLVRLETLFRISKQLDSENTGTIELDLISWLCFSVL

[3] = biological target: T2, RNA-binding protein pos-1 (Caenorhabditis elegans, UniProt G5EF15); experiment: inhibitors of POS-1/mex-3 RNA binding, dose response, biochemical, fluorescence polarization (AID 1964);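 note: purified POS-1 fused to maltose binding protein made in E. coli; potency of compounds blocking POS-1 binding to fluorescent RNA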
T2 sequence (G5EF15 whole entry): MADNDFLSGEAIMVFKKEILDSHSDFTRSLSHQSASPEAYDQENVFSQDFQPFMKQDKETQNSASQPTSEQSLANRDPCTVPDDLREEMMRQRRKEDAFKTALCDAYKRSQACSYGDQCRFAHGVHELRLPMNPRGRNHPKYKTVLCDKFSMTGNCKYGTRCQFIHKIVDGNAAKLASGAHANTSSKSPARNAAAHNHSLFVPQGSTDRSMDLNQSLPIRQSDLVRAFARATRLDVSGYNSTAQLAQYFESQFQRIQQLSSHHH

[4] = biological target: T3, Histone-lysine N-methyltransferase NSD2 (Homo sapiens, UniProt O96028); type: biochemical
T3 sequence (O96028 whole entry): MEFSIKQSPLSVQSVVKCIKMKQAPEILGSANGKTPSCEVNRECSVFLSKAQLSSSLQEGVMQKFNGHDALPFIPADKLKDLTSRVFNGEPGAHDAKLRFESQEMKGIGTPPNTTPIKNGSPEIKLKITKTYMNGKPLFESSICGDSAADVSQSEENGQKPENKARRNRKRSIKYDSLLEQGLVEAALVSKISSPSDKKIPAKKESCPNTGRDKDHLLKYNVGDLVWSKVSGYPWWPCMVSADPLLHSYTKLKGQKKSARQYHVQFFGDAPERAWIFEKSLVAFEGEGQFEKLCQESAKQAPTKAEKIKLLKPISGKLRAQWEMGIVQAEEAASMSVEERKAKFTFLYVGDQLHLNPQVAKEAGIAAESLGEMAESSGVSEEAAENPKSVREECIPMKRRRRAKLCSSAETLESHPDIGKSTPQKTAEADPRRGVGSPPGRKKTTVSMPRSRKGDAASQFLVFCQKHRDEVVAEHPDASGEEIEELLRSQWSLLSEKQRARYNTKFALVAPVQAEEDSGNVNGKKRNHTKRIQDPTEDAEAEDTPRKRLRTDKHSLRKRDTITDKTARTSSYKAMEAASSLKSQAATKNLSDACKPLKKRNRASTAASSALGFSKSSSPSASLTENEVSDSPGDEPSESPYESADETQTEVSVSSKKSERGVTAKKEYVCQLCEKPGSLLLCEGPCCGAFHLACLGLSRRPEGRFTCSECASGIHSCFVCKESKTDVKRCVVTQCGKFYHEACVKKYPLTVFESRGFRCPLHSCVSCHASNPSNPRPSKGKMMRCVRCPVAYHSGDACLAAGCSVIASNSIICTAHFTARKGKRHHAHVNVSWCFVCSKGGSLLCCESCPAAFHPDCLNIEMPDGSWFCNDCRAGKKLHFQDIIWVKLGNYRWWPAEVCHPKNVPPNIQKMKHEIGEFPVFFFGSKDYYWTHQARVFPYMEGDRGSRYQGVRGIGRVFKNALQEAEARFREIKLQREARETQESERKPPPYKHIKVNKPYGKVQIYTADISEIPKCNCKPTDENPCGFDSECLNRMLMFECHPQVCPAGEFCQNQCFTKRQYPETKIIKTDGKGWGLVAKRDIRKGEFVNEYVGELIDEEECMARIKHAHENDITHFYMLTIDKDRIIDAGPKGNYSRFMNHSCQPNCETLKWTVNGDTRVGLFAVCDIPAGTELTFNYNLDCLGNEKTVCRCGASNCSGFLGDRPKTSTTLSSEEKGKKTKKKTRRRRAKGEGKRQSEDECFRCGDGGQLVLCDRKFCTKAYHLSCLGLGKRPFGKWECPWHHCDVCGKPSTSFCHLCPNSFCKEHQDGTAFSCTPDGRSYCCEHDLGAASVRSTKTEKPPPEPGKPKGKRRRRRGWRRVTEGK

[5] = biological target: T4, Mannose-6-phosphate isomerase (Homo sapiens, UniProt P34949); experiment: human PMI inhibitors, high substrate, primary screen, biochemical, fluorescence intensity, high mannose 6-phosphate (AID 1220)
T4 sequence (P34949 whole entry): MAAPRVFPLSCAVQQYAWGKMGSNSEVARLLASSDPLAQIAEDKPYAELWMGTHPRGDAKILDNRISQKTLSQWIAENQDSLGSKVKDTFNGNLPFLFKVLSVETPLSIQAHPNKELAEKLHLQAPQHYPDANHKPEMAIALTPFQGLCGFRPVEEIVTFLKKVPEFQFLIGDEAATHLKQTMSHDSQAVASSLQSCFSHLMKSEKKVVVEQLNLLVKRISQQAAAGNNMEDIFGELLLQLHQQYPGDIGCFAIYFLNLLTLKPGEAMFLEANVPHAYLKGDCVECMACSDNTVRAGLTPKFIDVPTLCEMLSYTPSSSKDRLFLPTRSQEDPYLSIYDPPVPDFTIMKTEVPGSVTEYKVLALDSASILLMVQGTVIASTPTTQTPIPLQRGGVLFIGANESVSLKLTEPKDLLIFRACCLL

Genome polyprotein = Genome polyprotein (dengue virus type 2, UniProt P29990); experiment: Dengue-2 NS5 methyltransferase inhibitors, primary screen, biochemical, confirmation dose response (AID 588689); type: functional
[6] = biological target: T5, Zinc finger protein mex-5 (Caenorhabditis elegans, UniProt Q9XUB2); experiment: MEX-5/TCR-2 RNA interaction inhibitors, dose response, biochemical, C. elegans, fluorescence polarization (AID 1960)
T5 sequence (Q9XUB2 whole entry): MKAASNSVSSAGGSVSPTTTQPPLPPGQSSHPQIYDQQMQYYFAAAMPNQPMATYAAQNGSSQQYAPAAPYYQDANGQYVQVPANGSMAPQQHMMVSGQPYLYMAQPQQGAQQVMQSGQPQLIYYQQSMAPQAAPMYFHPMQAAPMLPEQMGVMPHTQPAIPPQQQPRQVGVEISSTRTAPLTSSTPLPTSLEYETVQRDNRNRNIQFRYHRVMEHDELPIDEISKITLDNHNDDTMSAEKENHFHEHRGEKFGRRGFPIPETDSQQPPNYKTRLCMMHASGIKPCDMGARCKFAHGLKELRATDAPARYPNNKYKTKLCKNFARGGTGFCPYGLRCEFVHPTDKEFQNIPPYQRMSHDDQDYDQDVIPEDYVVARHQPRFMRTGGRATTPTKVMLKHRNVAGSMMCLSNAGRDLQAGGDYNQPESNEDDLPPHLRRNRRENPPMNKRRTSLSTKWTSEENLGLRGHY

[7] = biological target: Sphingosine 1-phosphate receptor 2 (Homo sapiens, UniProt O95136); experiment: Dose Response Cell Based Assay for Agonists of the S1P2 Receptor. [Related pubchem assays: 729, 736, 843 ]; type: functional
[8] = NIH-3T3 fibroblast cytotoxicity, dose response, cytotoxicity control, cell-based, fluorescence, Alamar Blue, secondary assay (AID 2327); type: functional;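 note: NIH-3T3 mouse fibroblasts cultured with fluconazole at 8 µg/mL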
Aminopeptidase N = biological target: T6, Aminopeptidase N (Plasmodium falciparum FcB1/Columbia, UniProt O96935); experiment: P. falciparum M1AAP inhibitors, biochemical, fluorogenic H-Leu-NHMec substrate, 1536-well (AID 1445); parameters: species or system Plasmodium falciparum 3D7, 3D7
T6 sequence (O96935 whole entry): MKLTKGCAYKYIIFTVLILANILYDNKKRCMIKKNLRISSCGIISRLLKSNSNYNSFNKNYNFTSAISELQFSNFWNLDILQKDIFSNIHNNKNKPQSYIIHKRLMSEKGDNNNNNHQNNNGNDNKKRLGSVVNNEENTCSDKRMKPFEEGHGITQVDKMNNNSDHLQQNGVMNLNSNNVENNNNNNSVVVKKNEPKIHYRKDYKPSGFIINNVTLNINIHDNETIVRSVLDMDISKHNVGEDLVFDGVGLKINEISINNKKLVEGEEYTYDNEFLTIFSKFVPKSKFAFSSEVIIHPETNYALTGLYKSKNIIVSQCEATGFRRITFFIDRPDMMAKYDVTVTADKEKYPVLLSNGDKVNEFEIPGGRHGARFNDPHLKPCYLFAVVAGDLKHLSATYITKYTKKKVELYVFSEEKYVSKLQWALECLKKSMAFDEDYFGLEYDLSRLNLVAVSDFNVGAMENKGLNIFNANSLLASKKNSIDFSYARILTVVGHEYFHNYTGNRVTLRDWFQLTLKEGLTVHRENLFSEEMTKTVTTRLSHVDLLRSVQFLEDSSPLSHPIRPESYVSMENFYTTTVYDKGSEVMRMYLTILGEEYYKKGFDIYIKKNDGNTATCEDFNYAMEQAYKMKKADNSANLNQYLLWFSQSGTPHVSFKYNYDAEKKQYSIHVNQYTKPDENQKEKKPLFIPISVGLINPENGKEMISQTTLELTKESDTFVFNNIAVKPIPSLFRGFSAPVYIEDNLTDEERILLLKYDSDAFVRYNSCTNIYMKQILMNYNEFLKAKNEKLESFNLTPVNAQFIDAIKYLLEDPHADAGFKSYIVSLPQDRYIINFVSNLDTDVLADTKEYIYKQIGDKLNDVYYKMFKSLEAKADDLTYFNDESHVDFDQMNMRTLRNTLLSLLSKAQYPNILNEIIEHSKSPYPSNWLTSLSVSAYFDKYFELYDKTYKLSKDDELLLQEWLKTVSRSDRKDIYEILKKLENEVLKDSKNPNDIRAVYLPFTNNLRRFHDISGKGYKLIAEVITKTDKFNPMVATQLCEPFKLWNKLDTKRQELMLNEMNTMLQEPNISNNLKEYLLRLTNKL

[9] = biological target: Bifunctional protein GlmU (Mycobacterium tuberculosis, UniProt P9WMN3); experiment: Inhibitors of Mycobacterial Glucosamine-1-phosphate acetyl transferase (GlmU). Secondary screen.; parameters: species or system Mycobacterium tuberculosis H37Rv
[10] = C. albicans growth with fluconazole, confirmation, fluorescence, retest (AID 2467); type: functional, cell-based
[11] = biological target: T7, Carboxy-terminal domain RNA polymerase II polypeptide A small phosphatase 1 (Homo sapiens, UniProt Q9GZU7); experiment: inhibitors of CTDSP1, concentration-response testing, biochemical assay, absorbance-based, actives from ultra-high-throughput screening (AID 540297); type: functional
T7 sequence (Q9GZU7 whole entry): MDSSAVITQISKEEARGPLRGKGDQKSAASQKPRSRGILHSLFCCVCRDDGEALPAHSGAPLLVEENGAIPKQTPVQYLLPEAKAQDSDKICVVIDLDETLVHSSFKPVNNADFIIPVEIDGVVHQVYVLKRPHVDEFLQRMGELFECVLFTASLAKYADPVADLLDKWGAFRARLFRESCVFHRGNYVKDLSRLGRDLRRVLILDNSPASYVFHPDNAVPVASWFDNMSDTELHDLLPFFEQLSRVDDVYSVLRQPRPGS

[12] = P. falciparum late gametocyte killing, dose response, luminescence (AID 1117278); type: functional, cell-based;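 note: gametocytes exposed to compound for 24 hours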
[13] = Jurkat T cell cytotoxicity, dose response, cytotoxicity control for P. falciparum gametocyte viability project, luminescence (AID 1117277); type: functional, cell-based;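 note: potency reflects loss of cellular ATP meaning fewer viable cells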

Genome polyprotein, sequence (P29990 2492-3391 limits assumed): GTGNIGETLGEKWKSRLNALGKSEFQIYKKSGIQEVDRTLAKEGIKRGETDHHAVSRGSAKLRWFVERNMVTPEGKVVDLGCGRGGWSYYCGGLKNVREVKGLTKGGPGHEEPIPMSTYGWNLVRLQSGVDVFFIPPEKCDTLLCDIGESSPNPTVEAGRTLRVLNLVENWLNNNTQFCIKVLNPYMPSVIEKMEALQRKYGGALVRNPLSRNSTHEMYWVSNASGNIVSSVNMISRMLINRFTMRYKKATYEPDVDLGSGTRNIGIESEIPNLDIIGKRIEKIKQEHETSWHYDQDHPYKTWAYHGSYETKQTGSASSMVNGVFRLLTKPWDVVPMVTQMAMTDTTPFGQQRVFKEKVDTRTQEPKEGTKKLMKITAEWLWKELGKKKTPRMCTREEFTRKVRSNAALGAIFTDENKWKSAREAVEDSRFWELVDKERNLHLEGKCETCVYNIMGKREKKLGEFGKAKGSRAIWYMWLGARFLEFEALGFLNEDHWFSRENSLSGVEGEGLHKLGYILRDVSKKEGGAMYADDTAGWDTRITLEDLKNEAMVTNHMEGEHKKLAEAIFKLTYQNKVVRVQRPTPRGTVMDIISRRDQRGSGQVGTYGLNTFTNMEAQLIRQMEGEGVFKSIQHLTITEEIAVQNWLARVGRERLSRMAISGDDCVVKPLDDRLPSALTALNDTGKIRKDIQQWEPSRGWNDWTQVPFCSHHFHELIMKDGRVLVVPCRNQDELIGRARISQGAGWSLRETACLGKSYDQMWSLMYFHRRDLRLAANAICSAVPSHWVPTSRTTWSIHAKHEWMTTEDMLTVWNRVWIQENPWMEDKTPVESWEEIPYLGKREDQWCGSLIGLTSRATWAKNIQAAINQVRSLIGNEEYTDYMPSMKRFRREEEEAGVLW
Bifunctional protein GlmU, sequence (P9WMN3 whole entry): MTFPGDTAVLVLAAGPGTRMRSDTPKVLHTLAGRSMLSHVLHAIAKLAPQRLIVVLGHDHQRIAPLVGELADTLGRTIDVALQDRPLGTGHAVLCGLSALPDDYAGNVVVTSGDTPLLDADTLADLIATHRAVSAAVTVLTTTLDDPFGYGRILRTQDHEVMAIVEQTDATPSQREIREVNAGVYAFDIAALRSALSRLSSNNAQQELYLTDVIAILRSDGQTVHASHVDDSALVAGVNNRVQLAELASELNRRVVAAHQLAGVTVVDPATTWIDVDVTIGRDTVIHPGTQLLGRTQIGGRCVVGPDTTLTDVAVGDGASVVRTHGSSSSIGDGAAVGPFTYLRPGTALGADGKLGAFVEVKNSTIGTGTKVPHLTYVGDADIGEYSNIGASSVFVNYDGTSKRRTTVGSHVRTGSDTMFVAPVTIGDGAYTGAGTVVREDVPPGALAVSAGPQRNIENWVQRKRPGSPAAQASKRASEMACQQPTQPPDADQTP
RNA-editing ligase 1, mitochondrial, sequence (P86926 whole entry): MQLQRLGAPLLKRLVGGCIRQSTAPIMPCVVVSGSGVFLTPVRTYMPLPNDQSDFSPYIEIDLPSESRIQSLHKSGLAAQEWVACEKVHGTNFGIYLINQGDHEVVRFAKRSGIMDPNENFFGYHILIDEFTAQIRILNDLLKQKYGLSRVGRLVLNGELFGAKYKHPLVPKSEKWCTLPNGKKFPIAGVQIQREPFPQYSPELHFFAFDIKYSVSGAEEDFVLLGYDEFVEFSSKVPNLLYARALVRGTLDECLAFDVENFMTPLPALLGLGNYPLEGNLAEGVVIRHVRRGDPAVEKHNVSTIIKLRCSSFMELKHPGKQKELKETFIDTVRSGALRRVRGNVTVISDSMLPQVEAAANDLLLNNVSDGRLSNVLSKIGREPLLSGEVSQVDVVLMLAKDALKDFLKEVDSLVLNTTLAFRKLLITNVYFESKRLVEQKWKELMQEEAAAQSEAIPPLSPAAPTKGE
Sphingosine 1-phosphate receptor 2, sequence (O95136 whole entry): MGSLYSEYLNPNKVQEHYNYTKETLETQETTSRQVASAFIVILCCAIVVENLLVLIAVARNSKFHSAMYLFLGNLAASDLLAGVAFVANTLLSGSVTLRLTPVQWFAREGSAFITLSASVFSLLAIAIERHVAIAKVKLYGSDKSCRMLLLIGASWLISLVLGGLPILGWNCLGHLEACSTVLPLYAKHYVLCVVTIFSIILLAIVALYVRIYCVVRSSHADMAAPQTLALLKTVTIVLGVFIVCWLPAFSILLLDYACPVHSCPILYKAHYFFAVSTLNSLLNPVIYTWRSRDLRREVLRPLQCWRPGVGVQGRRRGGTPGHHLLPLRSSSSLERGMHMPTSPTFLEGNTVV

## CCOC(=O)c1ccc(CC(=O)c2ccc(O)c(O)c2O)o1
[1]
  IC50: > 96.6 µM (inactive)
[2]
  IC50: > 50 µM (not active)
[3]
  EC50: 35.5 µM (active)
[4]
  AC50: 17.3 µM (active)
[5]
  IC50: 19.4 µM (active)
Genome polyprotein
  IC50: 33.6 µM (active)
[6]
  EC50: 0.868 µM (active)

## c1ccc(OCCSc2nnnn2-c2ccccc2)cc1
[7]
  EC50: > 50 µM (not active)

## COC(=O)c1ccc(N2NC(=O)/C(=C/c3ccc(-c4ccc(Cl)c(C(=O)O)c4)o3)C2=O)cc1
[8]
  EC50: > 150 µM (inconclusive)
Aminopeptidase N
  IC50: 28.6 µM (active)
[9]
  IC50: 75.8 µM (active)
Genome polyprotein
  IC50: 11.9 µM (active)
[10]
  EC50: > 38 µM (not active)
[11]
  IC50: 2.15 µM (active)

## CSc1nccc(-c2cc(Cl)sc2Cl)n1
[12]
  IC50: > 109 µM (inactive)
[13]
  IC50: > 83.3 µM (inactive)
